# Like-named read-outs stand apart in the source and are kept apart here.
# Tested on: M. mycetomatis genome strain MM55
# Test: CLSI M38-A2 based in vitro susceptibility screening (XTT or resazurin), growth at fixed concentration
# Format: cell-based, Madurella mycetomatis
# Details: Madurella mycetomatis; for Percent fungal survival at 100 µM: read-out: Percentage survival at 100um, 100 uM A (second replicate column)
# [1] = 25 uM, mean of three, M. mycetomatis MM55, read-out: Percentage survival at 25um, 25 uM mean
# [2] = 25 uM, replicate A, M. mycetomatis MM55, read-out: Percentage survival at 25um, 25 um A
# [3] = 25 uM, replicate B, M. mycetomatis MM55, read-out: Percentage survival at 25um, 25 uM B
# [4] = 25 uM, replicate C, M. mycetomatis MM55, read-out: Percentage survival at 25um, 25 uM C
# [5] = mean of three, M. mycetomatis MM55, read-out: Percentage survival at 100um, 100 uM mean
# [6] = replicate 1, M. mycetomatis MM55, read-out: Percentage survival at 100um, 100 uM A (first replicate column)
# [7] = replicate 2, M. mycetomatis MM55
# [8] = replicate 3, M. mycetomatis MM55, read-out: Percentage survival at 100um, 100 uM A (third replicate column)
# [9] = 25 uM, mean of replicates, read-out: Percentage survival at 25um, 25 uM mean
# [10] = 25 uM, replicate A, read-out: Percentage survival at 25um, 25 um A
# [11] = 25 uM, replicate B, read-out: Percentage survival at 25um, 25 uM B
# [12] = 25 uM, replicate C, read-out: Percentage survival at 25um, 25 uM C
# [13] = mean of replicates, read-out: Percentage survival at 100um, 100 uM mean
# [14] = replicate 1, read-out: Percentage survival at 100um, 100 uM A
# [15] = replicate 2, read-out: Percentage survival at 100um, 100 uM A
# [16] = replicate 3, read-out: Percentage survival at 100um, 100 uM A
# [17] = 25 uM, mean of three replicates, read-out: Percentage survival at 25um, 25 uM mean
# [18] = mean of three replicates, read-out: Percentage survival at 100um, 100 uM mean
# [19] = replicate 1, read-out: Percentage survival at 100um, 100 uM A (first replicate column)
# [20] = replicate 3, read-out: Percentage survival at 100um, 100 uM A (third replicate column)
# [21] = 25 uM, mean, read-out: Percentage survival at 25um, 25 uM mean
# [22] = mean, read-out: Percentage survival at 100um, 100 uM mean
# [23] = replicate (first column), read-out: Percentage survival at 100um, 100 uM A
# [24] = replicate (second column), read-out: Percentage survival at 100um, 100 uM A
# [25] = replicate (third column), read-out: Percentage survival at 100um, 100 uM A
Structure (SMILES),activity at 25 µM [9],activity at 25 µM [10],activity at 25 µM [11],activity at 25 µM [12],activity at 100 µM [13],activity at 100 µM [14],activity at 100 µM [15],activity at 100 µM [16],also measured
CO[C@@]1(NC(=O)Cc2cccs2)C(=O)N2C(C(=O)O)=C(COC(N)=O)CS[C@@H]21 [MMV1578559],–,–,–,–,–,–,–,–,activity at 25 µM [1]: 84.2%; activity at 25 µM [2]: 91.6%; activity at 25 µM [3]: 86.2%; activity at 25 µM [4]: 74.6%; activity at 100 µM [5]: 90.3%; activity at 100 µM [6]: 87.3%; Percent fungal survival at 100 µM [7]: 98.4%; activity at 100 µM [8]: 85.1%
CCCCCCCc1[nH]c2ccccc2c(=O)c1O [MMV1578561],–,–,–,–,–,–,–,–,activity at 25 µM [1]: 76.2%; activity at 25 µM [2]: 76.9%; activity at 25 µM [3]: 79.7%; activity at 25 µM [4]: 71.9%; activity at 100 µM [5]: 72.1%; activity at 100 µM [6]: 73.7%; Percent fungal survival at 100 µM [7]: 69.3%; activity at 100 µM [8]: 73.2%
O=S(=O)(Nc1ccccc1)c1ccc(NC(=S)Nc2ccccc2)cc1 [MMV1578562],90%,93.2%,90.8%,86.1%,86%,96.1%,79.6%,82.2%,–
Fc1ccc2c(/C=C/c3nnn[nH]3)c[nH]c2c1 [MMV1578563],87.2%,86.3%,93.6%,81.6%,98.8%,96%,91.8%,109%,–
CCc1cc(O)c(Oc2ccc(C(N)=O)cc2F)cc1F [MMV1578564],–,145%,87.1%,85.3%,–,–,–,–,activity at 25 µM [17]: 106%; activity at 100 µM [18]: 80.4%; activity at 100 µM [19]: 82.2%; Percent fungal survival at 100 µM (replicate 2): 78.3%; activity at 100 µM [20]: 80.6%
CSC[C@H]1CN(Cc2c[nH]c3c(N)ncnc23)C[C@@H]1O [MMV1578565],–,–,–,–,–,–,–,–,activity at 25 µM [1]: 80.1%; activity at 25 µM [2]: 86.7%; activity at 25 µM [3]: 77.5%; activity at 25 µM [4]: 76%; activity at 100 µM [5]: 87.9%; activity at 100 µM [6]: 88.9%; Percent fungal survival at 100 µM [7]: 83%; activity at 100 µM [8]: 91.9%
NC[C@H]1OB(O)c2c(OCCCO)cccc21 [MMV1578566],83%,83.4%,92.5%,72.9%,97.6%,93.8%,96.2%,103%,–
O=c1ccc2ncc(=O)n3c2n1CC3CN1CCC(NCc2cc3c(cn2)OCCC3)CC1 (centres unmarked) [MMV1578568],–,82.6%,42.3%,75.2%,–,–,–,–,activity at 25 µM [21]: 66.7%; activity at 100 µM [22]: 63.3%; activity at 100 µM [23]: 26.3%; activity at 100 µM [24]: 74.3%; activity at 100 µM [25]: 89.2%
O=C1NC(=S)N/C1=C\c1cc(Br)cc(Br)c1O [MMV1578569],85.5%,79.8%,98.7%,77.8%,102%,103%,104%,97.5%,–
CC(C)(C)c1cc(C(=O)/C(C#N)=N/Nc2cccc(Cl)c2)no1 [MMV1578571],61%,95.6%,56.3%,31.2%,6.1%,4.87%,4.92%,8.51%,–
COc1cc(NC(=O)CN2C(=O)NC(c3ccccc3)(c3ccccc3)C2=O)cc(OC)c1 [MMV1578572],–,95.2%,47.1%,73.6%,–,–,–,–,activity at 25 µM [21]: 72%; activity at 100 µM [22]: 79.3%; activity at 100 µM [23]: 83.4%; activity at 100 µM [24]: 65.2%; activity at 100 µM [25]: 89.3%
COc1ccc(SCC(=O)N2c3ccccc3Sc3ccccc32)cc1 [MMV1578573],55.5%,59.3%,58.5%,48.8%,68.5%,43.6%,62.3%,99.7%,–
CN(C)[C@@H]1C(=O)C(C(N)=O)=C(O)[C@@]2(O)C(=O)C3=C(O)c4c(O)c(NC(=O)CN5CCCC5)cc(F)c4C[C@H]3C[C@@H]12 [MMV1578574],74.6%,58%,94%,72%,93%,92.7%,96.8%,89.4%,–
CC(=O)O[C@H]1C[C@@]2(C)[C@@H](C[C@@H](O)[C@H]3[C@@]4(C)CC[C@@H](O)[C@@H](C)[C@@H]4CC[C@@]32C)/C1=C(\CCC=C(C)C)C(=O)O [MMV1578575],–,–,–,–,–,–,–,–,activity at 25 µM [1]: 83.8%; activity at 25 µM [2]: 96.4%; activity at 25 µM [3]: 83.3%; activity at 25 µM [4]: 71.6%; activity at 100 µM [5]: 84.3%; activity at 100 µM [6]: 78.5%; Percent fungal survival at 100 µM [7]: 89.6%; activity at 100 µM [8]: 84.8%
O=C(Cc1ccccc1F)Nc1nc2ccccc2[nH]1 [MMV1578576],70.6%,73.4%,74.5%,63.8%,78.7%,102%,65.1%,69.2%,–
O=C(NC12CC3CC(CC(C3)C1)C2)c1cc2ccccc2[nH]1 [MMV1578577],–,79.8%,–,–,65.6%,59.6%,65.1%,72.1%,"activity at 25 µM (read-out: Percentage survival at 25um, 25 uM B): 67.1%; activity at 25 µM (read-out: Percentage survival at 25um, 25 uM C): 75.7%; activity at 25 µM (read-out: Percentage survival at 25um, 25 uM mean): 74.2%"
O=C(Nc1nnc(-c2ccccc2)o1)c1ccc(F)cc1 [MMV1578578],–,–,–,–,–,–,–,–,activity at 25 µM [1]: 24.9%; activity at 25 µM [2]: 69.5%; activity at 25 µM [3]: 1.3%; activity at 25 µM [4]: 3.74%; activity at 100 µM [5]: 0.7%; activity at 100 µM [6]: -1.02%; Percent fungal survival at 100 µM [7]: 1.69%; activity at 100 µM [8]: 1.43%
COc1ccc(C)cc1NC(=O)c1ccc(S(=O)(=O)N2CCCCC2)cc1 [MMV1578579],–,–,–,–,–,–,–,–,activity at 25 µM [1]: 72.2%; activity at 25 µM [2]: 96.4%; activity at 25 µM [3]: 63%; activity at 25 µM [4]: 57.3%; activity at 100 µM [5]: 71.4%; activity at 100 µM [6]: 69.7%; Percent fungal survival at 100 µM [7]: 77.1%; activity at 100 µM [8]: 67.5%
CCCCOC(=O)Nc1cc2nc(C3CCCCC3)[nH]c2cc1N(CC)CC [MMV1578842],88.1%,97.2%,93.7%,73.4%,93.8%,93.6%,90.8%,96.9%,–
O=c1cc(NCCCN[C@@H]2CCOc3c(Br)cc(Br)cc32)[nH]c2ccsc12 [MMV1578884],96.9%,100%,95.5%,94.6%,88.3%,93%,86.8%,85.3%,–
O=c1nc(N2CCN(CC3CCCCC3)CC2)sc2c([N+](=O)[O-])cc(C(F)(F)F)cc12 [MMV1578885],–,84.1%,98%,89.5%,–,–,–,–,activity at 25 µM [17]: 90.5%; activity at 100 µM [18]: 82.7%; activity at 100 µM [19]: 87.8%; Percent fungal survival at 100 µM (replicate 2): 75.6%; activity at 100 µM [20]: 84.8%
c1ccc(Cn2c(-c3ccccn3)nc3ccccc32)cc1 [MMV1578886],60.6%,64.1%,69.2%,48.7%,7.34%,12%,5.19%,4.84%,–
